The values below are quoted from earlier work in patent US20040185009A1, “Composition and device for treating periodontal diseases” (DEXCEL PHARMA TECHNOLOGIES LTD., priority 2003, published 2004).

For series [1], the system named is periodontal disease. The settings on record: 100 mg/day for two months.
The subject of series [2] is periodontal disease. As to conditions: 24 months, FBP-treated patient group.

Turning to `CC(C(=O)O)c1ccc(-c2ccccc2)c(F)c1` (centres unmarked) [FBP, Flurbiprofen], the “Effect on bone metabolism (standardized radiography, radiopharmaceutical uptake)” value in the series on periodontal disease [1] is reported as “increased bone metabolism”. Further, in the series on periodontal disease [2], the “Effect on bone loss” value was “reduction in bone loss”.
